Laboratory results published in PubChem BioAssay (NCI).
Where “and” joins values, the source holds several entries; their conditions need not be identical. Equal values may be shown once.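 The compound was tested at five concentrations on cells cultured in 96-well plates, with a 48-hour exposure period. GI50 is the concentration that inhibits growth by half. TGI is the concentration that stops growth completely.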

Experiments:
Assay in all cases: NCI tumour cell line growth inhibition, 48 h
786-0 renal = tested on: 786-0 renal
ACHN renal = tested on: ACHN renal
NCI-H460 lung = tested on: NCI-H460 lung
SF-295 CNS = tested on: SF-295 CNS
HOP-62 NSCLC = tested on: HOP-62 NSCLC
OVCAR-5 ovarian = tested on: OVCAR-5 ovarian
A549 NSCLC = tested on: A549 NSCLC
HCT-15 colon = tested on: HCT-15 colon
HT29 colon = tested on: HT29 colon
U251 CNS = tested on: U251 CNS
UACC-257 melanoma = tested on: UACC-257 melanoma
UO-31 renal = tested on: UO-31 renal
MDA-MB-435 = tested on: MDA-MB-435
MDA-MB-231 breast = tested on: MDA-MB-231 breast
MOLT-4 leukemia = tested on: MOLT-4 leukemia
NCI-H522 lung = tested on: NCI-H522 lung
BT-549 breast = tested on: BT-549 breast
SNB-75 CNS = tested on: SNB-75 CNS
A498 renal = tested on: A498 renal
T-47D breast = tested on: T-47D breast
CAKI-1 renal = tested on: CAKI-1 renal
SK-MEL-5 melanoma = tested on: SK-MEL-5 melanoma
SW-620 colon = tested on: SW-620 colon
SR leukemia = tested on: SR leukemia
SNB-19 CNS = tested on: SNB-19 CNS
M14 melanoma = tested on: M14 melanoma
HCC-2998 colon = tested on: HCC-2998 colon
OVCAR-4 ovarian = tested on: OVCAR-4 ovarian
MDA-N = tested on: MDA-N
UACC-62 melanoma = tested on: UACC-62 melanoma
DU-145 prostate = tested on: DU-145 prostate
NCI/ADR-RES ovarian = tested on: NCI/ADR-RES ovarian
SN12C renal = tested on: SN12C renal
SF-539 CNS = tested on: SF-539 CNS
K-562 leukemia = tested on: K-562 leukemia
TK-10 renal = tested on: TK-10 renal
OVCAR-8 ovarian = tested on: OVCAR-8 ovarian
LOX IMVI melanoma = tested on: LOX IMVI melanoma
PC-3 prostate = tested on: PC-3 prostate
SK-OV-3 ovarian = tested on: SK-OV-3 ovarian
EKVX NSCLC = tested on: EKVX NSCLC
CCRF-CEM leukemia = tested on: CCRF-CEM leukemia
HOP-92 NSCLC = tested on: HOP-92 NSCLC
MALME-3M melanoma = tested on: MALME-3M melanoma
IGROV1 ovarian = tested on: IGROV1 ovarian
SK-MEL-28 melanoma = tested on: SK-MEL-28 melanoma
OVCAR-3 ovarian = tested on: OVCAR-3 ovarian
SF-268 CNS = tested on: SF-268 CNS
RPMI-8226 leukemia = tested on: RPMI-8226 leukemia
NCI-H23 lung = tested on: NCI-H23 lung
HS 578T breast = tested on: HS 578T breast
COLO 205 colon = tested on: COLO 205 colon
HCT-116 colon = tested on: HCT-116 colon
RXF 393 renal = tested on: RXF 393 renal
SK-MEL-2 melanoma = tested on: SK-MEL-2 melanoma
HL-60(TB) leukemia = tested on: HL-60(TB) leukemia
NCI-H226 lung = tested on: NCI-H226 lung
KM12 colon = tested on: KM12 colon

## CCC(C)C1NC(=O)C(NC(=O)C(CC(C)C)N(C)C(=O)[C@@H]2C=CCN2C(=O)[C@H](C)O)C(C)OC(=O)[C@H](Cc2ccc(OC)cc2)N(C)C(=O)[C@@H]2CCCN2C(=O)[C@H](CC(C)C)NC(=O)C(C)C(=O)[C@H](C(C)C)OC(=O)CC1O (stereo partly specified)
786-0 renal
  TGI: 13.5 nM and 10.5 nM
ACHN renal
  TGI: 51.3 nM
NCI-H460 lung
  TGI: 12.5 nM and 22.7 nM
SF-295 CNS
  TGI: 20 nM
HOP-62 NSCLC
  TGI: 17.7 nM
OVCAR-5 ovarian
  TGI: 73.8 nM
A549 NSCLC
  TGI: 13.1 nM
HCT-15 colon
  TGI: 111 nM
HT29 colon
  TGI: 33.5 nM and 15.5 nM
U251 CNS
  TGI: 18 nM
UACC-257 melanoma
  TGI: 15.6 nM and 13.4 nM
UO-31 renal
  TGI: 62.6 nM and 406 nM
MDA-MB-435
  TGI: 13.2 nM
MDA-MB-231 breast
  TGI: 35.1 nM and 94.3 nM
MOLT-4 leukemia
  TGI: 8.05 nM
NCI-H522 lung
  TGI: 10.8 nM
BT-549 breast
  TGI: 15.3 nM
SNB-75 CNS
  TGI: 12.6 nM
A498 renal
  TGI: 47.1 nM and 48.1 nM
T-47D breast
  TGI: 10.9 nM
CAKI-1 renal
  TGI: 160 nM
SK-MEL-5 melanoma
  TGI: 10.2 nM
SW-620 colon
  TGI: 54.5 nM
SR leukemia
  TGI: > 100000 nM
SNB-19 CNS
  TGI: 55.6 nM
M14 melanoma
  TGI: 12.3 nM
HCC-2998 colon
  TGI: 14.7 nM
OVCAR-4 ovarian
  TGI: 8.81 nM and 11.2 nM
MDA-N
  TGI: 18.8 nM
UACC-62 melanoma
  TGI: 5 nM
DU-145 prostate
  TGI: 31.7 nM
NCI/ADR-RES ovarian
  GI50: 59.4 nM
  TGI: 11700 nM
SN12C renal
  TGI: 15 nM
SF-539 CNS
  TGI: 4.67 nM
K-562 leukemia
  TGI: 11.6 nM and 10.4 nM
TK-10 renal
  TGI: 68.2 nM and 24.6 nM
OVCAR-8 ovarian
  TGI: 38.6 nM
LOX IMVI melanoma
  TGI: 10.5 nM
PC-3 prostate
  TGI: 27.1 nM
SK-OV-3 ovarian
  TGI: 31.7 nM
EKVX NSCLC
  TGI: 34.5 nM
CCRF-CEM leukemia
  TGI: 11.4 nM
HOP-92 NSCLC
  TGI: 38.2 nM
MALME-3M melanoma
  TGI: 13.4 nM
IGROV1 ovarian
  TGI: 19.3 nM
SK-MEL-28 melanoma
  TGI: 5.67 nM
OVCAR-3 ovarian
  TGI: 28.2 nM and 11.2 nM
SF-268 CNS
  TGI: 10.9 nM and 18.6 nM
RPMI-8226 leukemia
  TGI: 20.1 nM
NCI-H23 lung
  TGI: 9.17 nM

## c1ccc2c(c1)N[C@@H]1c3[nH]c4ccccc4c3CC[C@H]21
786-0 renal
  TGI: 28500 nM
ACHN renal
  TGI: 68100 nM
NCI-H460 lung
  TGI: 33900 nM
SF-295 CNS
  TGI: 29700 nM
HOP-62 NSCLC
  TGI: 26900 nM
OVCAR-5 ovarian
  TGI: 29400 nM
A549 NSCLC
  TGI: 41400 nM
HCT-15 colon
  TGI: 65300 nM
HT29 colon
  TGI: 29700 nM
HS 578T breast
  TGI: 25900 nM
U251 CNS
  TGI: 27200 nM
UACC-257 melanoma
  TGI: > 100000 nM
UO-31 renal
  TGI: 37200 nM
COLO 205 colon
  TGI: 27900 nM
HCT-116 colon
  TGI: 27800 nM
MDA-MB-435
  TGI: 31100 nM
MDA-MB-231 breast
  TGI: 29900 nM
MOLT-4 leukemia
  TGI: 42000 nM
NCI-H522 lung
  TGI: 24200 nM
BT-549 breast
  TGI: 37700 nM
SNB-75 CNS
  TGI: 22800 nM
A498 renal
  TGI: 32000 nM
T-47D breast
  TGI: 76200 nM
CAKI-1 renal
  TGI: 38600 nM
SK-MEL-5 melanoma
  TGI: 27300 nM
RXF 393 renal
  TGI: 32600 nM
SW-620 colon
  TGI: 33300 nM
SNB-19 CNS
  TGI: 37900 nM
M14 melanoma
  TGI: 26400 nM
MDA-N
  TGI: 39200 nM
UACC-62 melanoma
  TGI: 31600 nM
DU-145 prostate
  TGI: 35300 nM
SK-MEL-2 melanoma
  TGI: 31700 nM
NCI/ADR-RES ovarian
  TGI: 28000 nM
SN12C renal
  TGI: 28500 nM
SF-539 CNS
  TGI: 31400 nM
K-562 leukemia
  TGI: 27800 nM
TK-10 renal
  TGI: > 100000 nM
OVCAR-8 ovarian
  TGI: 25600 nM
LOX IMVI melanoma
  TGI: 29500 nM
PC-3 prostate
  TGI: 24600 nM
HL-60(TB) leukemia
  TGI: 36200 nM
SK-OV-3 ovarian
  TGI: 36700 nM
EKVX NSCLC
  TGI: 37200 nM
CCRF-CEM leukemia
  TGI: 36900 nM
HOP-92 NSCLC
  TGI: 30600 nM
MALME-3M melanoma
  TGI: 22100 nM
IGROV1 ovarian
  TGI: 20900 nM
NCI-H226 lung
  TGI: 31600 nM
SK-MEL-28 melanoma
  TGI: 35300 nM
OVCAR-3 ovarian
  TGI: 27300 nM
SF-268 CNS
  TGI: 65100 nM
KM12 colon
  TGI: 30700 nM
RPMI-8226 leukemia
  TGI: 59000 nM
NCI-H23 lung
  TGI: 33000 nM
